Patent publication US20080103127A1, “METHODS FOR TREATING DISRUPTIVE BEHAVIOR DISORDERS” (priority 2006, published 2008)
Marks after values point to notes of the source that are not given here.

Columns and labels:
[1] = system: isolation-induced aggressive behavior in pairs of mice; assay: Isolation-induced aggression model in pairs of mice; type: in vivo, CrI:CD-1(ICR)BR albino mice
Experimental: The effects of test compound on the aggressive behavior of CrI:CD-1(ICR)BR albino mice were evaluated using the paradigm of isolation-induced aggression.
Male CrI:CD-1(ICR)BR albino mice, fasted overnight, were individually housed for 5 weeks in plastic cages on wood-chip bedding. Subsequently, they were paired for 1 minute daily for several days by placing one individually housed mouse (intruder) into the resident cage of another individually housed mouse (resident). The 1-minute pairing of intruder and resident mouse elicits aggressive behavior. Pairs of mice showing consistent aggressive behavior when paired for 1 minute, during several days were selected as subjects for drug testing.
Test compound (10 to 40 mg/kg p.o.) or the vehicle (methocel; aqueous 0.5%, w/v, hydroxypropyl methylcellulose solution) was administered (10 mL/kg) to the resident and intruder mouse. One and 4 hours after dosing, the mice were paired and the onset of fighting was recorded. […] The duration of fighting during a 1-minute test period was recorded. Mice were re-used in this procedure after several days to a week to allow metabolism and elimination of test compounds. The mice weighed 32 to 49 g at the time of testing and were fasted overnight before dosing. Mice were euthanized with CO2 if they were sick or injured.
Results were expressed as the median onset of fighting and median duration of fighting in vehicle and drug-treated groups. The statistical significance of an increase in the median onset or a reduction in the median duration of fighting in pairs of mice given test compound or its vehicle 1 and 4 hours after administration was determined using the nonparametric Wilcoxon test (p<0.05, 1-tailed).

dominant rats = assay: Reduction of Dominant Behavior Model (RDBM) of mania, dominant-submissive rat food competition test; type: in vivo, Sprague-Dawley rats
Source text: (§1) In this study, the effects of COMPOUND #7 on dominant or submissive behavior in pairs of rats competing for food are examined. It has been shown that anti-manic drugs, including anticonvulsants, decrease dominance and antidepressant drugs reduce submissiveness. This model uses dominant behavior as a model of mania and submissive behavior as a model of depression. The dominance and submissiveness is defined in a competition test and measured as the relative success of two food-restricted rats to gain access to a feeder. Rats are randomly paired and placed in an apparatus allowing them to compete for a food reward. The dominant-submissive relationship develops over a 2-week period. The submissive or dominant animals in pairs selected after 2 weeks of training were treated orally […] (b.i.d.) with COMPOUND #7 at 3 or 30 mg/kg for 5 weeks. The partner of the drug-treated animal was treated with vehicle.
(§2) The objective of this study was to determine if COMPOUND #7 is active in the Reduction of Submissive Behavior Model (RSBM) of depression and the Reduction of Dominant Behavior Model (RDBM) of mania. Measurements were made at two doses (3 and 30 mg/kg) after oral twice a day (b.i.d.) administration. The effect of the drug in the RSBM was compared to the effect of fluoxetine (10 mg/kg) and vehicle (0.5% methylcellulose). The effect of the drug in the RDBM was compared with the effect of lithium (100 mg/kg) and vehicle (0.5% methylcellulose). The endpoints measured were the development of a significant reduction of submissive or dominant behavior and its time of onset.
(§3) The DSR developed by two rats competing for food uses the apparatus in FIG. 1. The methodology and equipment are described in several publications. (See, Malatynska E, Goldenberg R, Shuck L, Haque A, Zamecki P, Crites G, Schindler N, Knapp R J. Reduction of submissive behavior in rats: a test for antidepressant drug activity. Pharmacology 2002; 64:8; Malatynska E, Rapp R, Crites G. Dominant behavior measured in a competition test as a model of mania. In: International Behavioral Neuroscience Society Meeting, ed. IBNSCapri, Italy, 2002, p 26.; Bonnet U. Moclobemide: therapeutic use and clinical studies. CNS Drug Rev 2003; 9:97; Danysz W, Plaznik A, Kostowski W, Malatynska E, Jarbe T U, Hiltunen A J, Archer T. Comparison of desipramine, amitriptyline, zimeldine and alaproclate in six animal models used to investigate antidepressant drugs. Pharmacol Toxicol 1988; 62:42; Knapp R J, Goldenberg R, Shuck C, Cecil A, Watkins J, Miller C, Crites G, Malatynska E. Antidepressant activity of memory-enhancing drugs in the reduction of submissive behavior model. Eur J Pharmacol 2002; 440:27; Kostowski W, Malatynska E, Plaznik A, Dyr W, Danysz W. Comparative studies on antidepressant action of alprazolam in different animal models. Pol J Pharmacol Pharm 1986; 38, 471; Malatynska E, De Leon I, Allen D, Yamamura Hi. Effects of amitriptyline on GABA-stimulated ^36Cl^− uptake in relation to a behavioral model of depression. Brain Res Bull 1995; 37:53; Malatynska E, Kostowski W. The effect of antidepressant drugs on dominance behavior in rats competing for food. Pol J Pharmacol Pharm 1984; 36:531; Malatynska E, Kostowski W. Desipramine antagonizes clonidine-induced suppression of dominance in rats: possible involvement of amygdaloid nuclei. Pol J Pharmacol Pharm 1988; 40:357).
In the experiments described in this report Sprague-Dawley rats weighing 160 to 180 g were used. […]

submissive rats = assay: Reduction of Submissive Behavior Model (RSBM) of depression, dominant-submissive rat food competition test; type: in vivo, Sprague-Dawley rats
Source text: as §1, §2, §3
In the experiments described in this report Sprague-Dawley rats weighing 160 to 180 g were used. Testing for the development of a DSR between paired rats begins with the random assignment of rats into pairs. Rats from pairs are housed separately between test sessions with other animals in groups of four. The animals are food-deprived overnight with free access to water.
The test involves placing each member of a pair in opposite chambers of the testing apparatus. These chambers are connected through a narrow tunnel with a small container of sweetened milk at the center. […]

[2] = 10 mg/kg p.o., 1 hour after administration
[3] = 10 mg/kg p.o., 4 hours after administration
[4] = 20 mg/kg p.o., 1 hour after administration
[5] = 20 mg/kg p.o., 4 hours after administration
[6] = 30 mg/kg p.o., 1 hour after administration
[7] = 30 mg/kg p.o., 4 hours after administration
[8] = 40 mg/kg p.o., 1 hour after administration
[9] = 40 mg/kg p.o., 4 hours after administration

For `NC(=O)OC[C@@H](O)c1ccccc1Cl` [COMPOUND #7, carisbamate], the “Median Duration of isolation-induced fighting” value [1, 2] was 28 s, the “Median Onset of isolation-induced fighting” value (from here on “Median Onset”) [1, 2] was 5 s and the “Median Duration of isolation-induced fighting” value [1, 3] was 6 s. For the same compound, the “Median Onset” value [1, 3] was 4 s, the “Median Duration of isolation-induced fighting” value [1, 4] was 20 s and the “Median Onset” value [1, 4] was 11 s. For the same compound, the “Median Duration of isolation-induced fighting” value [1, 5] was 26 s, the “onset of initiation of fighting compared to vehicle-treated group” value [1, 5] was “significantly shortened” and the “Median Duration of isolation-induced fighting” value [1, 6] was 18 s. For the same compound, the “Median Onset” value [1, 6] was 14 s, the “Median Duration of isolation-induced fighting” value [1, 7] was 9.5 s and the “Median Onset” value [1, 7] was 4 s. The “Median Duration of isolation-induced fighting” value [1, 8] was 0.5^b sec, the “Median Onset” value [1, 8] was 40 s and the “isolation-induced aggressive behavior in pairs of mice” value ([1]; 40 mg/kg p.o., 1 hour after administration, p<0.05) was “statistically significantly inhibited”. For the same compound, the “Median Duration of isolation-induced fighting” value [1, 9] was 20 s, the “Median Onset” value [1, 9] was 17 s and the “median duration of fighting compared to vehicle-treated groups” value ([1]; any group (10 to 40 mg/kg p.o.), 4 hours after administration) was “not affected”. For the same compound, the “onset of significant decrease of dominant rat performance (time of treatment)” value (dominant rats; 3 mg/kg b.i.d. p.o.) was 3 weeks, the “extent and onset of the effect on dominant rats compared with lithium” value (dominant rats; 3 mg/kg b.i.d. p.o. vs lithium 100 mg/kg i.p.) was “not significantly different” and the “performance of dominant rats” value (dominant rats; 3 mg/kg b.i.d. p.o., 5 weeks, dominant rat treated, partner vehicle) was “decreased the performance”. The “onset of increased competitiveness of dominant rats (time of treatment)” value (dominant rats; 30 mg/kg b.i.d. p.o.) was 2 weeks, the “competitiveness of dominant rats compared to water treated dominant rats” value (dominant rats; 30 mg/kg b.i.d. p.o., 5 weeks, dominant rat treated) was “significantly increased the competitiveness” and the “effect on submissive rat behavior” value (submissive rats; 3 mg/kg b.i.d. p.o., 5 weeks, submissive rat treated, partner vehicle) was “did not have any effect”. For the same compound, the “onset of increased competitiveness of submissive rats (time of treatment)” value (submissive rats; 30 mg/kg b.i.d. p.o.) was 1 week, the “efficacy in submissive rats compared with fluoxetine” value (submissive rats; 30 mg/kg b.i.d. p.o. vs fluoxetine 10 mg/kg i.p. once a day) was “same efficacy as fluoxetine” and the “competitiveness of submissive rat compared to vehicle-treated submissive rats” value (submissive rats; 30 mg/kg b.i.d. p.o., 5 weeks, submissive rat treated) was “significantly increased competitiveness”.
